Data on 20 compounds can be found in PubChem BioAssay AID624275 (Broad Institute, 2012).

The source made the active and inactive calls. How the calls were made is not given here. Bounds are passed on as bounds.

For this assay, the system named is CqsS sensor histidine kinase (Vibrio cholerae). The assay can be described thus: CqsS histidine kinase agonist, Vibrio cholerae WN1103 delta luxQ, luciferase luminescence, confirmatory dose (AID 624275). Particulars: V. cholerae WN1103 delta luxQ, 6 h; for activation: at 35 µM (top of the series).

On to `Cc1ccc(OCCNC(=O)c2cccc(C)c2)cc1`, for which the AC40 is 309 nM.
The same measure, in the same setting: with `CCOc1ccc(Nc2ccc3nonc3c2[N+](=O)[O-])cc1` the figure was 596 nM; with `COc1ccccc1NC(=O)COC(=O)c1ccc(C)cc1`, 2240 nM; with `O=C(Cc1ccc(-c2ccccc2)cc1)NC1CCCC1`, 118 nM.
Same read-out and setting: with `CCCn1nnnc1NCc1ccc(C(C)C)cc1` the figure was 28.8 nM.
The same measure, in the same setting: with `COc1ccccc1NC(=O)COC(=O)c1oc2ccccc2c1C` the figure was 2010 nM; with `CCC(C)NC(=O)Cc1ccc(-c2ccccc2)cc1` (stereo not given), 1920 nM.
For `O=c1ncn(-c2cccc(Cl)c2)c2ccccc12`, the AC40 is 29.4 nM.
Still for that read-out and setting: under `CCn1nnnc1NCc1ccc(N2CCCC2)cc1` stands 5.71 nM.
Regarding `CCCn1nnnc1NCc1ccccc1Cl`, the activation was 0.419% (inactive).
Same read-out and setting: under `Cc1ccc(CC(=O)NC2CCCC2)cc1` stands 10.3% (inactive).
For the compound `CCCn1nnnc1NCc1ccc(N(CC)CC)cc1`, the AC40 is 90.1 nM.
On the same count and under the same terms, with `Cc1ccc2cc3c(NC(=O)c4ccco4)nn(C)c3nc2c1` the figure was 4220 nM.
For the compound `COc1ccccc1NC(=O)COC(=O)c1cc2c(s1)CCC2`, the AC40 was 184 nM.
Turning to `CCn1c(CC(=O)Nc2cccc(Cl)c2Cl)nnc1SCCOc1ccc(OC)cc1`, the activation is 0.37% (inactive).
Take `Cc1c(Cl)cccc1-n1cnc(=O)c2ccccc21`: the AC40 was > 35000 nM (inactive).
In the case of `CCn1nnc(NCc2ccc(C)cc2)n1`, the activation is 0.153% (inactive).
For `COc1ccc(Cl)cc1NC(=O)COC(=O)c1ccc(C)o1`, the AC40 was 489 nM.
On the same count and under the same terms, with `O=C(Nc1nnc(-c2ccc3c(c2)OCCO3)o1)C1CCCCC1` the figure was 2070 nM; with `CCCn1nnnc1NCc1ccc(N2CCCC2)cc1`, 29.2 nM.
